In this test the test system is Phosphorylation of STAT6 in human A549 cells. The test can be described thus: Phosphorylated STAT6 (pSTAT6) flow cytometry assay in human A549 cells. The test is classed as cell-based. As to conditions: read-out: STAT6 IL4 pSTAT6 assay in A549 cells: Average IC50. From the text:
Example 3. Phosphorylated STAT6 (pSTAT6) Flow Cytometry Assay in Human A549 Cells
Phosphorylation of STAT6 in human A549 cells was quantitatively measured using flow cytometry technology.

Experimental findings from patent publication US20250214977A1, “STAT6 INHIBITORS AND USES THEREOF” (Kymera Therapeutics, Inc., priority 2024, published 2025) are described below.

Structures are written as SMILES. pIC50: −log10 of the molar value.

For `CCOc1ccc(-c2cc(C3=CCCN(C(=O)CCn4ccnn4)C3)c(F)c3[nH]c(C(=O)N4CCN(c5ncc(F)cc5OC)CC4)cc23)c(OCC)c1` [Example I-618], the pIC50 is over 7.00. For `COc1ccccc1-c1cc(C2=CCCN(C(=O)CCn3ccnn3)C2)c(F)c2[nH]c(C(=O)N3CCN(c4nccc5ccccc45)CC3)cc12` [Example I-363], the pIC50 is over 7.00. In the case of `COc1ccncc1-c1cc(C2=CCCN(C(=O)CCn3ccnn3)C2)c(F)c2[nH]c(C(=O)N3CCN(C4CCCCC4)CC3)cc12` [Example I-1149], the pIC50 is over 7.00. For `COc1ccccc1-c1cc(C2=CCCN(C(=O)CCn3ccnn3)C2)c(F)c2[nH]c(C(=O)N3CCN(c4ccc(F)cc4OC)CC3)cc12` [Example I-431], the pIC50 was over 7.00. Next, `COc1ccccc1-c1cc(C2=CCCN(C(=O)CCn3ccnn3)C2)c(F)c2[nH]c(C(=O)N3CCc4cccc(OC)c4C3)cc12` [Example I-901]: over 7.00; `COc1ccccc1-c1cc(C2=CCCN(C(=O)CCn3ccnn3)C2)c(F)c2[nH]c(C(=O)N3CCN(c4nc5ccccc5c5ccccc45)CC3)cc12` [Example I-916]: 6.00 to 7.00; `CNc1ccc(-c2cc(C3=CCCN(C(=O)CCn4ccnn4)C3)c(F)c3[nH]c(C(=O)N4CCN(C)CC4)cc23)c(OC)c1` [Example I-990]: over 7.00. Turning to `COc1ccccc1-c1cc(C2=CCCN(C(=O)CCn3ccnn3)C2)c(F)c2[nH]c(C(=O)N3CCN(c4c(C)ccc5[nH]ncc45)CC3)cc12` [Example I-959], the pIC50 is over 7.00. The value for `COc1ccccc1-c1cc(C2=CCCN(C(=O)CCn3ccnn3)C2)c(F)c2[nH]c(C(=O)N3CCN(c4cc(C)c5ncnn5c4)CC3)cc12` [Example I-909] was over 7.00; that for `CN(C)C(=O)c1cc2cc(C3=CCCN(C(=O)CCn4ccnn4)C3)cc(C3CCNCC3)c2o1` [Example I-1048] was over 7.00.

For the compound `COc1cc(F)cnc1N1CCN(C(=O)c2cc3c(-c4ccc(C(O)C(F)(F)F)cc4)cc(C4=CCCN(C(=O)CCn5ccnn5)C4)c(F)c3[nH]2)CC1` (centres unmarked) [Example I-1145], the pIC50 was over 7.00. `COc1cc(F)cnc1N1CCN(C(=O)c2cc3c(-c4ccc5nn(C)cc5c4)cc(C4=CCCN(C(=O)CCn5ccnn5)C4)c(F)c3[nH]2)CC1` [Example I-624]: the pIC50 was over 7.00. As to `CN(C)C(=O)c1cc2cc(C3=CCCN(C(=O)C(Cn4ccnn4)c4cccc(CO)c4)C3)ccc2o1` (centres unmarked) [Example I-832], the pIC50 was 5.00 to 6.00. The value for `COc1ccncc1-c1cc(C2=CCCN(C(=O)CCn3ccnn3)C2)c(F)c2[nH]c(C(=O)N3CCN(c4ccccc4)CC3)cc12` [Example I-400] was under 4.00; that for `COc1ccccc1-c1cc(C2=CCCN(C(=O)CCn3ccnn3)C2)c(F)c2[nH]c(C(=O)N3CCN(c4c(C)ccn5nccc45)CC3)cc12` [Example I-1019] was over 7.00; that for `COc1ccccc1-c1cc(C2=CCCN(C(=O)CCn3ccnn3)C2)c(F)c2[nH]c(C(=O)N3CCc4ncncc4C3)cc12` [Example I-1010] was over 7.00.

In the case of `COc1cc(F)cnc1N1CCN(C(=O)c2cc3c(-c4cc(C)nc(C)c4)cc(C4=CCCN(C(=O)CCn5ccnn5)C4)c(F)c3[nH]2)CC1` [Example I-632], the pIC50 is over 7.00. The value for `COc1ccccc1-c1cc(C2=CCCN(C(=O)CCn3ccnn3)C2)c(F)c2[nH]c(C(=O)N3CCN(c4c(F)ccc5cnccc45)CC3)cc12` [Example I-972] was over 7.00. `COc1ccccc1-c1cc(C2=CCCN(C(=O)CCn3ccnn3)C2)c(F)c2[nH]c(C(=O)N3CCN(c4ncccc4OC(F)F)CC3)cc12` [Example I-358]: the pIC50 is over 7.00. `COc1ccccc1-c1cc(C2=CCCN(C(=O)CCn3ccnn3)C2)c(F)c2[nH]c(C(=O)N3CCN(c4cc(OC)c5c(c4)nnn5C)CC3)cc12` [Example I-962]: the pIC50 is over 7.00. The value for `CCc1ccncc1-c1cc(C2=CCCN(C(=O)C(=O)O)C2)c(F)c2[nH]c(C(=O)N3CCN(c4ncc(F)cc4OC)CC3)cc12` [Example I-790] was over 7.00. In the case of `COc1ccncc1-c1cc(C2=CCCN(C(=O)CCn3ccnn3)C2)c(F)c2[nH]c(C(=O)N3CCN(c4ncc(F)cc4OC)CC3)cc12` [Example I-428], the pIC50 is over 7.00. In the case of `COc1ccccc1-c1cc(C2=CCCN(C(=O)CCn3ccnn3)C2)c(F)c2[nH]c(C(=O)N3CCN(c4ncccc4OC(C)C)CC3)cc12` [Example I-332], the pIC50 is over 7.00. With `COc1ccncc1-c1cc(C2=CCCN(C(=O)CCn3ccnn3)C2)c(F)c2[nH]c(C(=O)N3CCN(c4ccc(C5CC5)cc4OC)CC3)cc12` [Example I-481], the pIC50 is over 7.00. `COc1ccccc1-c1cc(C2=CCCN(C(=O)CCn3ccnn3)C2)c(F)c2[nH]c(C(=O)N(C)Cc3ccc4c(c3)OCO4)cc12` [Example I-976]: the pIC50 was over 7.00.

As to `COc1cc(F)cnc1N1CCN(C(=O)c2cc3c(-c4cc(C)cc5cccnc45)cc(C4=CCCN(C(=O)CCn5ccnn5)C4)c(F)c3[nH]2)CC1` [Example I-633], the pIC50 was over 7.00. For `CCn1c(C2=CCCN(C(=O)CCn3ccnn3)C2)cc2cc(C(=O)N3CCN(c4ncc(F)cc4OC)CC3)cc(-c3ccccc3OC)c21` [Example I-734], the pIC50 is over 7.00.

Consider `COc1ccccc1-c1cc(C2=CCCN(C(=O)CCn3ccnn3)C2)c(F)c2[nH]c(C(=O)N3CC4CN(c5ncccc5OC)CC4C3)cc12` (centres unmarked) [Example I-912], for which the pIC50 is 6.00 to 7.00.

With `COc1cc(F)cnc1N1CCN(C(=O)c2cc3c(-c4ccc(=O)n(Cc5ccccc5)c4)cc(C4=CCCN(C(=O)CCn5ccnn5)C4)c(F)c3[nH]2)CC1` [Example I-1136], the pIC50 is over 7.00.

As for `COc1ccccc1-c1cc(C2=CCCN(C(=O)CCn3ccnn3)C2)c(F)c2[nH]c(C(=O)N3CCN(c4ncccc4OC)CC3)cc12` [Example I-326], the pIC50 was 4.00 to 5.00.

As to `CCc1nc(C)ccc1-c1cc(C(=O)N2CCN(c3ncc(F)cc3OC)CC2)cc2cc(C3=CCCN(C(=O)CCn4cccn4)C3)n(CC3CC3)c12` [Example I-522], the pIC50 was over 7.00. The value for `CCOCc1cc(-c2cc(C3=CCCN(C(=O)CCn4ccnn4)C3)c(F)c3[nH]c(C(=O)N4CCN(c5ncc(F)cc5OC)CC4)cc23)ccc1F` [Example I-1128] was over 7.00; that for `COCc1cccc(NC(=O)c2cc3c(-c4ccccc4OC)cc(C4=CCCN(C(=O)CCn5ccnn5)C4)c(F)c3[nH]2)c1` [Example I-1028] was 5.00 to 6.00. As for `COC(=O)c1cc(N2CCN(C(=O)c3cc4c(-c5ccccc5OC)cc(C5=CCCN(C(=O)CCn6ccnn6)C5)c(F)c4[nH]3)CC2)cn1C` [Example I-1004], the pIC50 is over 7.00. The value for `COc1cc(F)cnc1N1CCN(C(=O)c2cc3c(-c4ccc(C(F)(F)F)cc4CO)cc(C4=CCCN(C(=O)CCn5ccnn5)C4)c(F)c3[nH]2)CC1` [Example I-1167] was over 7.00; that for `CCOc1ccncc1-c1cc(C2=CCCN(C(=O)CCn3cccn3)C2)c(F)c2[nH]c(C(=O)N3CCN(c4cncnc4OC)CC3)cc12` [Example I-486] was over 7.00; that for `COc1ccccc1-c1cc(C2=CCCN(C(=O)CCn3ccnn3)C2)c(F)c2[nH]c(C(=O)N3CCN(c4ccc(C(F)(F)F)cc4F)CC3)cc12` [Example I-932] was 6.00 to 7.00.

In the case of `COc1cc(F)cnc1N1CCN(C(=O)c2cc3c(-c4ccncc4C(C)C)cc(C4=CCCN(C(=O)CCn5cccn5)C4)c(F)c3[nH]2)CC1` [Example I-685], the pIC50 was over 7.00. The value for `CN1CCN(c2ccc(-c3cc(C4=CCCN(C(=O)CCn5ccnn5)C4)cc4cc(C(=O)N(C)C)oc34)cn2)CC1` [Example I-1087] was over 7.00. Take `CN(C)C(=O)c1cc2cc(C3=CCCN(C(=O)CCn4ccnn4)C3)cc(CN3CC(N)C3)c2o1` [Example I-1180]: the pIC50 was over 7.00. Consider `CCc1ccncc1-c1cc(C2=CCCN(C(=O)OC)C2)c(F)c2[nH]c(C(=O)N3CCN(c4ncc(F)cc4OC)CC3)cc12` [Example I-708], for which the pIC50 was 4.00 to 5.00. Next, `CNc1ccc(-c2cc(C3=CCCN(C(=O)CCn4ccnn4)C3)cc3cc(C(=O)N(C)C)oc23)c(OC)c1` [Example I-1056]: over 7.00; `CC(=O)N1CCC=C(c2cc(-c3ccc(F)cc3O)c3cc(C(=O)N(C)C)[nH]c3c2F)C1` [Example I-891]: 6.00 to 7.00. As for `COc1ccccc1-c1cc(C2=CCCN(C(=O)CCn3ccnn3)C2)c(F)c2[nH]c(C(=O)Nc3ccnn3C)cc12` [Example I-993], the pIC50 was 6.00 to 7.00. With `CCc1nc(C)ccc1-c1cc(C(=O)N2Cc3cnn(CC)c3C2)c(F)c2cc(C3=CCCN(C(=O)CCn4ccnn4)C3)n(CC3CC3)c12` [Example I-549], the pIC50 was under 4.00. Regarding `COc1cc(F)cnc1N1CCN(C(=O)c2cc3c(C4=CCCOC4)cc(C4=CCCN(C(=O)CCn5ccnn5)C4)c(F)c3[nH]2)CC1` [Example I-1126], the pIC50 is over 7.00. As for `COc1ccccc1-c1cc(C2=CCCN(C(=O)CCn3ccnn3)C2)c(F)c2[nH]c(C(=O)N3CCN(c4cc(F)cc(F)c4OC)CC3)cc12` [Example I-357], the pIC50 is over 7.00. The value for `COc1ccncc1-c1cc(C2=CCCN(C(=O)CCn3cccn3)C2)c(F)c2[nH]c(C(=O)N3CCN(c4ncc(F)cc4OC)CC3)cc12` [Example I-664] was over 7.00; that for `COc1cccnc1N1CCN(C(=O)c2cc3c(-c4cnc5ccccc5c4OC)cc(C4=CCCN(C(=O)CCn5ccnn5)C4)c(F)c3[nH]2)CC1` [Example I-402] was under 4.00.

As to `CN(C)C(=O)c1cc2cc(C3=CCCN(C(=O)CCn4ccnn4)C3)cc(NCc3ccccc3C3CC3)c2o1` [Example I-878], the pIC50 is over 7.00.

For the compound `COc1ccccc1-c1cc(C2=CCCN(C(=O)CCn3ccnn3)C2)c(F)c2[nH]c(C(=O)N3CCN(c4ncccc4Oc4ccccc4)CC3)cc12` [Example I-334], the pIC50 was over 7.00. The value for `CN(C)CCN(C)C(=O)c1cc2cc(C3=CCCN(C(=O)CCn4ccnn4)C3)ccc2o1` [Example I-844] was 6.00 to 7.00; that for `COc1ccccc1-c1cc(C2=CCCN(C(=O)CCn3ccnn3)C2)c(F)c2[nH]c(C(=O)N3CCN(c4cc(F)ccn4)CC3)cc12` [Example I-934] was over 7.00.
